In patent US20220324835A1 (Nurix Therapeutics, Inc., priority 2018, published 2022) one finds IC50 and fold induction data, which are given here for 12 molecules.

The target of assay [1] is T1, Cbl-b (Homo sapiens, UniProt Q13191). Put plainly: Cbl-b activity assay (Cbl-b inhibition assay), TR-FRET of Cbl-b interaction with UbcH5B-Ub. It counts as biochemical. The note with it: assay buffer with 100 mM NaCl, 60 nM Src kinase; read-out: Cbl-b activity IC50. The method in brief:
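UbcH5B (C85K) conjugated to N-terminally Bodipy-Fluorescein-labeled ubiquitin served as the fluorescent partner. After compound preincubation, Src kinase (60 nM) with 1 mM ATP and 5 mM MgCl2 (final) was added for 1.5 h, followed by a further 1 h incubation. Some values were obtained with 50 mM NaCl and 30 nM Src.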

The test system of assay [2] is T-cell. Nature of the assay: IL-2 secretion from T-cells co-stimulated with anti-CD3 and anti-CD28 antibody (Biological Example 2). It counts as cell-based, human. The note with it: Homo sapiens, T-cell, fold change over baseline (anti-CD3/anti-CD28 stimulated T-cells without inhibitor), read-out: IL-2 secretion Anti-CD3/Anti-CD28 stimulation; for fold induction at 0.3 µM: 0.3 μM Cbl-b inhibitor; for fold induction at 1 µM: 1 μM Cbl-b inhibitor. The method in brief:
(§1)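 T-cells were stimulated with anti-CD3 antibody alone or with anti-CD28 antibody, in the presence or absence of Cbl-b inhibitor. IL-2 secretion or CD25 surface staining was measured, and values expressed as fold over the uninhibited baseline […].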

Assay [3] deals with T-cell. Nature of the assay: CD25 cell surface staining on T-cells co-stimulated with anti-CD3 and anti-CD28 antibody (Biological Example 2). It counts as cell-based, human. The conditions noted are these: Homo sapiens, T-cell, fold change over baseline (anti-CD3/anti-CD28 stimulated T-cells without inhibitor), read-out: CD25 staining Anti-CD3/Anti-CD28 stimulation; for fold induction at 0.3 µM: 0.3 μM Cbl-b inhibitor; for fold induction at 1 µM: 1 μM Cbl-b inhibitor. Put shortly: as §1

The subject of assay [4] is T-cell. Nature of the assay: CD25 cell surface staining on T-cells stimulated with anti-CD3 antibody alone (Biological Example 2). The assay is classed as cell-based, human. The conditions noted are these: Homo sapiens, T-cell; 1 μM Cbl-b inhibitor; fold change over baseline (anti-CD3/anti-CD28 stimulated T-cells without inhibitor); read-out: CD25 staining Anti-CD3 stimulation.

Assay [5] concerns the target T1, Cbl-b. Nature of the assay: Cbl-b inhibition assay (Cbl-b activity assay, FRET, Biological Example 1; 100 mM NaCl, 60 nM Src kinase). The assay is classed as biochemical. The note with it: upper bound stated in text lists; read-out: IC50 values in the Cbl-b inhibition assay of Biological Example 1. The method in brief: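 FRET read-out: loss of signal marks inhibition. Mix = biotin-Avi-Cbl-b (N-term), Src kinase, UbcH5B-Ub(Bodipy-FL, irreversible conjugate), streptavidin-Tb, assay buffer.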

For assay [6], the system named is T-cell. Put plainly: IL-2 secretion from T-cells stimulated with anti-CD3 antibody alone (Biological Example 2). The assay is classed as cell-based, human. The note with it: Homo sapiens, T-cell; 1 μM Cbl-b inhibitor; fold change over baseline (anti-CD3/anti-CD28 stimulated T-cells without inhibitor); read-out: IL-2 secretion Anti-CD3 stimulation.

Structures are written as SMILES. pIC50: −log10 of the molar value.

T1 sequence (Q13191 36-427): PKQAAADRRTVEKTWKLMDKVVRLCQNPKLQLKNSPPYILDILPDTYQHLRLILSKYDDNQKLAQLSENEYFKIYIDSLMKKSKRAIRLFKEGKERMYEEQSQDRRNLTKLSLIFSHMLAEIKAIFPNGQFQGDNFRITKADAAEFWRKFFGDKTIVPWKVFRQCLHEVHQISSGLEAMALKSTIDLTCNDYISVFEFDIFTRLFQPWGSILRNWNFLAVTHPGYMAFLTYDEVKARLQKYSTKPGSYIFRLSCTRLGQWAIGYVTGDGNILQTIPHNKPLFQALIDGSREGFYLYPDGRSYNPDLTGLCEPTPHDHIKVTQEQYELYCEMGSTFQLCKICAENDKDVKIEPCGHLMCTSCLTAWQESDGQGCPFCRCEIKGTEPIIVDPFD

Turning to `C[C@H](Cc1nncn1C)c1cc(-c2cncs2)nc(N2Cc3c(cccc3C(F)(F)F)C2=O)c1` [Example 682, (R)-2-(4-(1-(4-methyl-4H-1,2,4-triazol-3-yl)propan-2-yl)-6-(thiazol-5-yl)pyridin-2-yl)-4-(trifluoromethyl)isoindolin-1-one], the results for the pIC50 at Cbl-b [1] and on Cbl-b [5] were 6.00 to 6.52 and at least 6.00, respectively. The fold induction at 0.3 µM in the assay with T-cell [2] fell in the range of 1.01 to 2.5; in the assay on T-cell [3], 1.01 to 1.3. For the same molecule, the fold induction at 1 µM in the assay on T-cell [2] was 1.01 to 2.5; in the assay with T-cell [3], 1.01 to 1.3; in the assay on T-cell [4] it was below 0.6; in the assay with T-cell [6] it was 0.051 to 0.1.
For the molecule `C[C@H](Cc1nncn1C)c1cc(C2CCOCC2)nc(N2Cc3c(cccc3C(F)(F)F)C2=O)c1` [Example 686, (R)-2-(4-(1-(4-methyl-4H-1,2,4-triazol-3-yl)propan-2-yl)-6-(tetrahydro-2H-pyran-4-yl)pyridin-2-yl)-4-(trifluoromethyl)isoindolin-1-one], the negative logarithm of the IC50 (pIC50) at Cbl-b [1] is 6.00 to 6.52; on Cbl-b [5], at least 6.00. The fold induction at 0.3 µM lay in the range of 1.01 to 2.5 with T-cell [2] and 1.01 to 1.3 with T-cell [3]. In addition, the fold induction at 1 µM in the assay on T-cell [2] was 1.01 to 2.5; in the assay on T-cell [3], 1.01 to 1.3; in the assay on T-cell [4], below 0.6; with T-cell [6], below 0.05.
As for `C[C@H](Cc1nncn1C)c1cc(N[C@@H]2CC[C@@H]2O)nc(N2Cc3c(cccc3C(F)(F)F)C2=O)c1` [Example 689a, 2-(6-(((1R,2S)-2-hydroxycyclobutyl)amino)-4-((R)-1-(4-methyl-4H-1,2,4-triazol-3-yl)propan-2-yl)pyridin-2-yl)-4-(trifluoromethyl)isoindolin-1-one], the negative logarithm of the IC50 (pIC50) was 6.00 to 6.52 at Cbl-b [1] and at least 6.00 on Cbl-b [5]. The fold induction at 0.3 µM was 1.01 to 2.5 in the assay on T-cell [2] and 1.01 to 1.3 in the assay on T-cell [3]. The fold induction at 1 µM in the assay on T-cell [2] was 1.01 to 2.5; in the assay on T-cell [3], 1.01 to 1.3; in the assay on T-cell [4], 0.601 to 0.8; with T-cell [6], below 0.05.
`C[C@H](Cc1nncn1C)c1cc(N[C@H]2CC[C@H]2O)nc(N2Cc3c(cccc3C(F)(F)F)C2=O)c1` [Example 689b, 2-(6-(((1S,2R)-2-hydroxycyclobutyl)amino)-4-((R)-1-(4-methyl-4H-1,2,4-triazol-3-yl)propan-2-yl)pyridin-2-yl)-4-(trifluoromethyl)isoindolin-1-one]: the negative-log IC50 (pIC50) on Cbl-b [1] was 6.00 to 6.52; at Cbl-b [5], at least 6.00. Moreover, the values for the fold induction at 0.3 µM in the assay with T-cell [2] and with T-cell [3] were 1.01 to 2.5 and 1.01 to 1.3, respectively. The fold induction at 1 µM is 1.01 to 2.5 in the assay with T-cell [2], 1.01 to 1.3 in the assay on T-cell [3], below 0.6 in the assay with T-cell [4] and below 0.05 in the assay on T-cell [6].
In the case of `CCOc1cc(NC(=O)c2cc(C)nc(C3CC3)n2)cc(C2(Cc3nncn3C)COC2)c1` [Example 690, 2-cyclopropyl-N-(3-ethoxy-5-(3-((4-methyl-4H-1,2,4-triazol-3-yl)methyl)oxetan-3-yl)phenyl)-6-methylpyrimidine-4-carboxamide], the negative-log IC50 (pIC50) on Cbl-b [1] was above 7.00; on Cbl-b [5] it was at least 7.00. Moreover, the fold induction at 0.3 µM with T-cell [2] lay within 2.51 to 5; in the assay with T-cell [3], 1.01 to 1.3. The fold induction at 1 µM in the assay with T-cell [2] is 5 to 7.5; in the assay with T-cell [3] it was 1.01 to 1.3; with T-cell [4], 0.801 to 1; in the assay with T-cell [6], 0.051 to 0.1.
In the case of `CCOc1cc(N2Cc3c(cc([C@@H](C)N4CC[C@H](F)C4)cc3C(F)(F)F)C2=O)cc(C2(Cc3nncn3C)COC2)c1` [Example 691a, 2-(3-ethoxy-5-(3-((4-methyl-4H-1,2,4-triazol-3-yl)methyl)-oxetan-3-yl)phenyl)-6-((R)-1-((S)-3-fluoropyrrolidin-1-yl)ethyl)-4-(trifluoromethyl)-isoindolin-1-one], the pIC50 on Cbl-b [1] is above 7.00; on Cbl-b [5], at least 7.00. Besides, the figures for the fold induction at 0.3 µM in the assay with T-cell [2] and with T-cell [3] were above 7.5 and 1.31 to 1.5, respectively. Moreover, the fold induction at 1 µM with T-cell [2] was above 7.5; in the assay on T-cell [3], 1.51 to 1.75; in the assay on T-cell [4] it was above 1; in the assay on T-cell [6], above 0.201.
In the case of `CCOc1cc(N2Cc3c(cc([C@H](C)N4CC[C@H](F)C4)cc3C(F)(F)F)C2=O)cc(C2(Cc3nncn3C)COC2)c1` [Example 691b, 2-(3-ethoxy-5-(3-((4-methyl-4H-1,2,4-triazol-3-yl)methyl)oxetan-3-yl)phenyl)-6-((S)-1-((S)-3-fluoropyrrolidin-1-yl)ethyl)-4-(trifluoromethyl)isoindolin-1-one], the values for the pIC50 at Cbl-b [1] and on Cbl-b [5] were above 7.00 and at least 7.00, respectively. For the same molecule, the results for the fold induction at 0.3 µM in the assay on T-cell [2] and in the assay with T-cell [3] were 2.51 to 5 and 1.31 to 1.5, respectively. In addition, the fold induction at 1 µM was above 7.5 in the assay on T-cell [2], 1.51 to 1.75 in the assay with T-cell [3], above 1 in the assay with T-cell [4] and 0.151 to 0.2 in the assay on T-cell [6].
As for `Cc1cc2c(c(C3CC3)n1)CN(c1cccc(C3(Cc4nncn4C)COC3)c1)C2=O` [Example 692, 4-cyclopropyl-6-methyl-2-(3-(3-((4-methyl-4H-1,2,4-triazol-3-yl)methyl)oxetan-3-yl)phenyl)-2,3-dihydro-1H-pyrrolo[3,4-c]pyridin-1-one], the negative-log IC50 (pIC50) is above 7.00 at Cbl-b [1] and at least 7.00 on Cbl-b [5]. Further, the results for the fold induction at 0.3 µM with T-cell [2] and in the assay on T-cell [3] were 1.01 to 2.5 and 1.01 to 1.3, respectively. The fold induction at 1 µM with T-cell [2] was 2.51 to 5; in the assay on T-cell [3], 1.31 to 1.5; in the assay on T-cell [4], 0.801 to 1; in the assay on T-cell [6] it was 0.051 to 0.1.
As to `Cn1cnnc1CC1(c2cccc(N3Cc4c(cc(CN5CCCC(F)(F)C5)cc4C(F)(F)F)C3=O)c2)COC1` [Example 693, 6-((3,3-difluoropiperidin-1-yl)methyl)-2-(3-(3-((4-methyl-4H-1,2,4-triazol-3-yl)methyl)oxetan-3-yl)phenyl)-4-(trifluoromethyl)isoindolin-1-one], the pIC50 at Cbl-b [1] is above 7.00; on Cbl-b [5], at least 7.00. The fold induction at 0.3 µM was above 7.5 in the assay with T-cell [2] and 1.51 to 1.75 with T-cell [3]. Also, the fold induction at 1 µM with T-cell [2] was above 7.5; with T-cell [3] it was 1.51 to 1.75; with T-cell [4], above 1; in the assay with T-cell [6], above 0.201.
For `Cc1cc(C(=O)Nc2cccc(C3(Cc4nncn4C)CCC3)c2)nc(C2CC2)n1` [Example 694, 2-cyclopropyl-6-methyl-N-(3-(1-((4-methyl-4H-1,2,4-triazol-3-yl)methyl)cyclobutyl)phenyl)pyrimidine-4-carboxamide], the values for the pIC50 on Cbl-b [1] and at Cbl-b [5] were above 7.00 and at least 7.00, respectively. Besides, the fold induction at 0.3 µM in the assay with T-cell [2] is above 7.5; in the assay on T-cell [3] it was 1.31 to 1.5. Moreover, the fold induction at 1 µM was above 7.5 with T-cell [2], 1.31 to 1.5 with T-cell [3], above 1 in the assay on T-cell [4] and 0.051 to 0.1 in the assay on T-cell [6].
In the case of `Cn1cnnc1CC1(c2cccc(N3Cc4c(cc(CN5CCC6(CC6)C5)cc4C(F)(F)F)C3=O)c2)CCC1` [Example 695, 6-((5-azaspiro[2.4]heptan-5-yl)methyl)-2-(3-(1-((4-methyl-4H-1,2,4-triazol-3-yl)methyl)cyclobutyl)phenyl)-4-(trifluoromethyl)isoindolin-1-one], the negative-log IC50 (pIC50) at Cbl-b [1] was above 7.00; on Cbl-b [5], at least 7.00. The fold induction at 0.3 µM with T-cell [2] is above 7.5; in the assay with T-cell [3], 1.31 to 1.5. The fold induction at 1 µM in the assay on T-cell [2] was above 7.5; in the assay with T-cell [3], 1.31 to 1.5; in the assay with T-cell [4], above 1; in the assay on T-cell [6], above 0.201.
With `Cn1cnnc1CC1(c2cccc(N3Cc4c(ccnc4C(F)(F)F)C3=O)c2)COC1` [Example 696, 2-(3-(3-((4-methyl-4H-1,2,4-triazol-3-yl)methyl)oxetan-3-yl)phenyl)-4-(trifluoromethyl)-2,3-dihydro-1H-pyrrolo[3,4-c]pyridin-1-one], the pIC50 was above 7.00 at Cbl-b [1] and at least 7.00 at Cbl-b [5]. Also, the fold induction at 0.3 µM lay in the range of 1.01 to 2.5 in the assay with T-cell [2] and 1.01 to 1.3 in the assay with T-cell [3]. Also, the fold induction at 1 µM is 1.01 to 2.5 in the assay with T-cell [2], 1.01 to 1.3 with T-cell [3], 0.601 to 0.8 in the assay with T-cell [4] and below 0.05 with T-cell [6].
